Columns and labels:
[1] = 101.33 kPa, Liquid
[2] = xn = mol fraction of the nth substance listed; conditions: 101 kPa, Liquid

CCCCO [butan-1-ol]
[1]
Conditions | mass density [kg/m3] | viscosity [mPa·s]
293.15 K | 809.82 | 2.963
298.15 K | 806.06 | 2.619
303.15 K | 802.03 | 2.298
313.15 K | 793.29 | 1.786
323.15 K | 786.55 | 1.421
333.15 K | 777.81 | 1.137
343.15 K | 767.03 | 0.92
353.15 K | 757.52 | 0.759
363.15 K | 749.38 | 0.63

CCOC(=O)OCC [diethyl carbonate]
[1]
Conditions | mass density [kg/m3] | viscosity [mPa·s]
293.15 K | 975 | 0.8
298.15 K | 968.97 | 0.746
303.15 K | 962.39 | 0.695
313.15 K | 952.32 | 0.61
323.15 K | 939.78 | 0.541
333.15 K | 928.69 | 0.483
343.15 K | 916.33 | 0.435
353.15 K | 905.02 | 0.393
363.15 K | 893.71 | 0.358

CCOC(=O)OCC [diethyl carbonate] + CCCCCO
[2]
Conditions | mass density, x1 = 0.1016 [kg/m3] | mass density, x1 = 0.2056 [kg/m3] | mass density, x1 = 0.2991 [kg/m3] | viscosity, x1 = 0.1016 [mPa·s] | viscosity, x1 = 0.2056 [mPa·s] | viscosity, x1 = 0.2991 [mPa·s]
293.15 K | 831.8 | 849.16 | 864.58 | 2.879 | 2.155 | 1.735
298.15 K | 827.59 | 844.75 | 859.91 | 2.522 | 1.907 | 1.549
303.15 K | 823.06 | 840.03 | 854.97 | 2.206 | 1.69 | 1.386
313.15 K | 814.72 | 831.26 | 845.78 | 1.723 | 1.351 | 1.132
323.15 K | 805.16 | 821.48 | 835.87 | 1.383 | 1.109 | 0.939
333.15 K | 796.72 | 812.44 | 826.67 | 1.122 | 0.918 | 0.79
343.15 K | 787.31 | 802.62 | 816.48 | 0.919 | 0.766 | 0.67
353.15 K | 778.85 | 793.74 | 807.26 | 0.764 | 0.65 | 0.576
363.15 K | 770.78 | 785.19 | 798.3 | 0.644 | 0.557 | 0.501

CCOC(=O)OCC [diethyl carbonate] + CCCCO
[2]
Conditions | mass density, x1 = 0.1016 [kg/m3] | mass density, x1 = 0.2023 [kg/m3] | mass density, x1 = 0.2974 [kg/m3] | viscosity, x1 = 0.1016 [mPa·s] | viscosity, x1 = 0.2023 [mPa·s] | viscosity, x1 = 0.2974 [mPa·s]
293.15 K | 830.56 | 849.89 | 867.23 | 2.161 | 1.681 | 1.38
298.15 K | 826.34 | 845.4 | 862.6 | 1.909 | 1.504 | 1.254
303.15 K | 821.75 | 840.53 | 857.48 | 1.685 | 1.339 | 1.13
313.15 K | 812.55 | 831.22 | 847.88 | 1.345 | 1.091 | 0.932
323.15 K | 804.95 | 822.83 | 838.91 | 1.097 | 0.906 | 0.785
333.15 K | 795.85 | 813.37 | 829.07 | 0.904 | 0.761 | 0.668
343.15 K | 784.94 | 802.09 | 817.6 | 0.749 | 0.642 | 0.572
353.15 K | 775.15 | 792.01 | 807.21 | 0.63 | 0.549 | 0.496
363.15 K | 766.42 | 782.78 | 797.61 | 0.536 | 0.475 | 0.434

CCOC(=O)OCC [diethyl carbonate] + CCCO
[2]
Conditions | mass density, x1 = 0.0993 [kg/m3] | mass density, x1 = 0.2003 [kg/m3] | mass density, x1 = 0.3011 [kg/m3] | viscosity, x1 = 0.0993 [mPa·s] | viscosity, x1 = 0.2003 [mPa·s] | viscosity, x1 = 0.3011 [mPa·s]
293.15 K | 829.06 | 852 | 872.49 | 1.668 | 1.347 | 1.147
298.15 K | 824.24 | 846.98 | 867.35 | 1.49 | 1.211 | 1.037
303.15 K | 819.57 | 841.86 | 861.83 | 1.328 | 1.089 | 0.938
313.15 K | 810.34 | 832.49 | 852.34 | 1.073 | 0.896 | 0.783
323.15 K | 798.04 | 819.74 | 839.43 | 0.887 | 0.751 | 0.666
333.15 K | 790.59 | 811.83 | 831 | 0.739 | 0.636 | 0.572
343.15 K | 778.86 | 799.8 | 818.79 | 0.618 | 0.542 | 0.493
353.15 K | 770.55 | 790.85 | 809.27 | 0.524 | 0.466 | 0.43
363.15 K | 761.19 | 780.98 | 799 | 0.448 | 0.405 | 0.378

CCCCCO [pentan-1-ol]
[1]
Conditions | mass density [kg/m3] | viscosity [mPa·s]
293.15 K | 814.51 | 4.117
298.15 K | 810.73 | 3.556
303.15 K | 806.77 | 3.06
313.15 K | 799.05 | 2.332
323.15 K | 789.81 | 1.822
333.15 K | 781.81 | 1.44
343.15 K | 772.84 | 1.146
353.15 K | 764.79 | 0.931
363.15 K | 757.17 | 0.767

CCCO [propan-1-ol]
[1]
Conditions | mass density [kg/m3] | viscosity [mPa·s]
293.15 K | 803.62 | 2.238
298.15 K | 799.41 | 1.981
303.15 K | 795.27 | 1.745
313.15 K | 786.62 | 1.381
323.15 K | 773.91 | 1.115
333.15 K | 767.31 | 0.907
343.15 K | 755.95 | 0.742
353.15 K | 748.41 | 0.615
363.15 K | 739.7 | 0.515
